In ChEMBL document CHEMBL4823275, “Structure-based molecular hybridization design of Keap1-Nrf2 inhibitors as novel protective agents of acute lung injury” (Eur J Med Chem, 2021):
Activity calls are given as the source filed them. No cut-off for these calls is given here.

Key:
[1] = molecular target: Keap1/Nrf2 (Homo sapiens, UniProt Q14145); assay: Inhibition of Keap1-Nrf2 (unknown origin) interaction measured after 60 mins by Fluorescence polarization assay; format: protein assay
[2] = Cytotoxicity against mouse peritoneal macrophages assessed as reduction in cell viability measured after 24 hrs by CCK8 assay; format: cell-based, Peritoneal macrophage
[3] = system: Peritoneal macrophage; assay: Antiinflammatory activity against mouse peritoneal macrophages assessed as inhibition of LPS-induced NO production at 10 uM measured after 24 hrs by Griess assay; format: functional, cell-based
[4] = system: Peritoneal macrophage; assay: Antiinflammatory activity against mouse peritoneal macrophages assessed as reduction in LPS-induced TNFalpha production at 10 uM measured after 24 hrs by ELISA; format: functional, cell-based
[5] = system: Peritoneal macrophage; assay: Antiinflammatory activity against mouse peritoneal macrophages assessed as inhibition of LPS-stimulated ROS production at 10 uM incubated for 6 hrs by DCFH-DA staining based fluorescence analysis; format: functional, cell-based
[6] = molecular target: T1, Kelch-like ECH-associated protein 1/Nuclear factor erythroid 2-related factor 2 (Mus musculus) (UniProt Q60795+Q9Z2X8); assay: Inhibition of Keap1-Nrf2 interaction in mouse peritoneal macrophages assessed as increase in nuclear translocation of Nrf2 by measuring decrease in cytosolic Nrf2 level at 10 uM measured after 3 to 6 hrs by Western blot analysis; format: subcellular; details: Peritoneal macrophage, Cytosol, time 3-6 hrs
T1 sequence (Q60795 whole entry, looked up): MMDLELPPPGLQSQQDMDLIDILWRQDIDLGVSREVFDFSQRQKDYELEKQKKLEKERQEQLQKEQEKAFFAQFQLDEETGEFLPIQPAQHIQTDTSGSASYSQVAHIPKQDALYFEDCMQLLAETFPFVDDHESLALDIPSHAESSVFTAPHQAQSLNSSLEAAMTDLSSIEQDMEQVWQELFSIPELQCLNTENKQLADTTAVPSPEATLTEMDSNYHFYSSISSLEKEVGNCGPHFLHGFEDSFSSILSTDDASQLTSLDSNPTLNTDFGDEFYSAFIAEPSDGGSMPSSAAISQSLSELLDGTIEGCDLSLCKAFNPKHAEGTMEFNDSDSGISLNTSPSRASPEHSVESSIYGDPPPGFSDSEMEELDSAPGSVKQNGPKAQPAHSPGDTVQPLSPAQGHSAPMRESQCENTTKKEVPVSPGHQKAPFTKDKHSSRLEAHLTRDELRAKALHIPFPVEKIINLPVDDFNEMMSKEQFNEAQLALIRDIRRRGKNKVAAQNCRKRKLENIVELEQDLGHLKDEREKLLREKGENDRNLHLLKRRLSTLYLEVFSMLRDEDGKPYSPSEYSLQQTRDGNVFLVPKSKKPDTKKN
T1 sequence (Q9Z2X8 whole entry, looked up): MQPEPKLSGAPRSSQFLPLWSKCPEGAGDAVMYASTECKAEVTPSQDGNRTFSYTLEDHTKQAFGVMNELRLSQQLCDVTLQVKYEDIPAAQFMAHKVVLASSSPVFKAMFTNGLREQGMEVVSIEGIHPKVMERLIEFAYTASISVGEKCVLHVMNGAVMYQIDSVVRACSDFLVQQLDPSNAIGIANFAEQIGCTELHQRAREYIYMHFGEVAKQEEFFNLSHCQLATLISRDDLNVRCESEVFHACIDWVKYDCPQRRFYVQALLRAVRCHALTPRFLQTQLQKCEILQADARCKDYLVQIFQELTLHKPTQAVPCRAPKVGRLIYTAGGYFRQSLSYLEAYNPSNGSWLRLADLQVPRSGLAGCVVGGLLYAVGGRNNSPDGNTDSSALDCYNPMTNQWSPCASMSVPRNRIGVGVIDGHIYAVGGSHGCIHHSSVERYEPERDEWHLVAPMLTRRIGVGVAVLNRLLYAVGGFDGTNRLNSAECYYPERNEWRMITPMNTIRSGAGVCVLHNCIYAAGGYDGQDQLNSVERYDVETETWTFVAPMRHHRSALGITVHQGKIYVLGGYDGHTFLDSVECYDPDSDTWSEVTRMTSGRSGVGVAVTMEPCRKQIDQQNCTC

[7] = molecular target: T1, Kelch-like ECH-associated protein 1/Nuclear factor erythroid 2-related factor 2 (Mus musculus); assay: Inhibition of Keap1-Nrf2 interaction in mouse peritoneal macrophages assessed as increase in nuclear translocation of Nrf2 by measuring increase in nuclear Nrf2 level at 10 uM measured after 3 to 6 hrs by Western blot analysis; format: subcellular; details: Peritoneal macrophage, Nucleus, time 3-6 hrs
[8] = molecular target: T1, Kelch-like ECH-associated protein 1/Nuclear factor erythroid 2-related factor 2 (Mus musculus); assay: Inhibition of Keap1-Nrf2 interaction in mouse peritoneal macrophages assessed as upregulation of NQO1 protein expression at 10 uM by Western blot analysis; format: tissue-based; details: Peritoneal macrophage, time 1-6 hrs, TDE = time-dependent effect
[9] = molecular target: T1, Kelch-like ECH-associated protein 1/Nuclear factor erythroid 2-related factor 2 (Mus musculus); assay: Inhibition of Keap1-Nrf2 interaction in mouse peritoneal macrophages assessed as upregulation of HO-1 protein expression at 10 uM by Western blot analysis; format: tissue-based; details: Peritoneal macrophage, time 1-6 hrs, TDE = time-dependent effect
[10] = system: Mus musculus; assay: (§1) In vivo inhibition of Keap1-Nrf2 interaction in LPS-induced acute lung injury C57BL/6 mouse model assessed as increase in Nrf2 nuclear translocation in lungs by measuring decrease in cytosolic Nrf2 level treated intraperitoneally at 0.5 hrs before LPS stimulation and measured after 6 hrs by western blot analysis; format: functional, organism-based; details: dose 5-20 mg/kg, time 6.5 hrs
[11] = system: Mus musculus; assay: Anti-inflammatory activity against LPS-induced acute lung injury C57BL/6 mouse model assessed as reduction in LPS-induced IL-1 beta mRNA expression in lungs at 5 to 20 mg/kg, ip treated 0.5 hrs before LPS stimulation and measured after 6 hrs by RT-PCR analysis; format: functional, organism-based; details: dose 5-20 mg/kg, time 6.5 hrs
[12] = system: Mus musculus; assay: Anti-inflammatory activity against LPS-induced acute lung injury C57BL/6 mouse model assessed as reduction in LPS-induced TNF-alpha secretion in BALF at 5 to 20 mg/kg, ip treated 0.5 hrs before LPS stimulation and measured after 6 hrs by ELISA; format: functional, organism-based; details: dose 5-20 mg/kg, time 6.5 hrs
[13] = system: Mus musculus; assay: (§2) Antiinflammatory activity against LPS-induced acute lung injury C57BL/6 mouse model assessed as intact alveolar structure with reduced inflammatory cells infiltration in lungs at 5 to 20 mg/kg, ip treated 0.5 hrs before LPS stimulation and measured after 6 hrs by hematoxylin and eosin staining based microscopic analysis; format: functional, organism-based; details: dose 5-20 mg/kg, time 6.5 hrs
[14] = system: Mus musculus; assay: as §1, with “increase” for “decrease”, “nuclear” for “cytosolic”; format: functional, organism-based; details: dose 5-20 mg/kg, time 6.5 hrs
[15] = system: Mus musculus; assay: Anti-inflammatory activity against LPS-induced acute lung injury C57BL/6 mouse model assessed as reduction in LPS-induced IL-1 beta secretion in BALF at 5 to 20 mg/kg, ip treated 0.5 hrs before LPS stimulation and measured after 6 hrs by ELISA; format: functional, organism-based; details: dose 5-20 mg/kg, time 6.5 hrs
[16] = system: Mus musculus; assay: Anti-inflammatory activity against LPS-induced acute lung injury C57BL/6 mouse model assessed as reduction in LPS-induced IL-6 mRNA expression in lungs at 5 to 20 mg/kg, ip treated 0.5 hrs before LPS stimulation and measured after 6 hrs by RT-PCR analysis; format: functional, organism-based; details: dose 5-20 mg/kg, time 6.5 hrs
[17] = system: Mus musculus; assay: as §2, with “mild” for “intact”, “thickening” for “structure”, “less bleeding points/congestion” for “reduced inflammatory cells infiltration”; format: functional, organism-based; details: dose 5-20 mg/kg, time 6.5 hrs
[18] = system: Mus musculus; assay: Anti-inflammatory activity against LPS-induced acute lung injury C57BL/6 mouse model assessed as reduction in LPS-induced TNF-alpha mRNA expression in lungs at 5 to 20 mg/kg, ip treated 0.5 hrs before LPS stimulation and measured after 6 hrs by RT-PCR analysis; format: functional, organism-based; details: dose 5-20 mg/kg, time 6.5 hrs

Chain of Keap1/Nrf2 (Q16236 whole entry): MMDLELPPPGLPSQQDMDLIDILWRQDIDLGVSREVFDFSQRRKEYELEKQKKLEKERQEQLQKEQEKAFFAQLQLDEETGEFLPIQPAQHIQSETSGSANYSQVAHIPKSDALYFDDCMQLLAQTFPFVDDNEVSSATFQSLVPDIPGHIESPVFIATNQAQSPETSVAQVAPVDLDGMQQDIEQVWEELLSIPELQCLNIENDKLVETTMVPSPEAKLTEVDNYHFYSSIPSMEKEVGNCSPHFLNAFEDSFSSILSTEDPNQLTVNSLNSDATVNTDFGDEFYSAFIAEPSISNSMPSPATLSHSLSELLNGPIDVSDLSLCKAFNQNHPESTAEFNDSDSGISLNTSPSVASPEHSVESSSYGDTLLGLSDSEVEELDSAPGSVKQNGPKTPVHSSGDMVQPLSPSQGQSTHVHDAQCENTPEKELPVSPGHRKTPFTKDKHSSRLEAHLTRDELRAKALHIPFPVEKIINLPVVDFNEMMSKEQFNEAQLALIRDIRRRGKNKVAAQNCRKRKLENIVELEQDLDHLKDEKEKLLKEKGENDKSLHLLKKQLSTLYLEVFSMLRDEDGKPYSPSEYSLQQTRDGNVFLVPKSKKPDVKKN
Chain of Keap1/Nrf2 (Q14145 whole entry): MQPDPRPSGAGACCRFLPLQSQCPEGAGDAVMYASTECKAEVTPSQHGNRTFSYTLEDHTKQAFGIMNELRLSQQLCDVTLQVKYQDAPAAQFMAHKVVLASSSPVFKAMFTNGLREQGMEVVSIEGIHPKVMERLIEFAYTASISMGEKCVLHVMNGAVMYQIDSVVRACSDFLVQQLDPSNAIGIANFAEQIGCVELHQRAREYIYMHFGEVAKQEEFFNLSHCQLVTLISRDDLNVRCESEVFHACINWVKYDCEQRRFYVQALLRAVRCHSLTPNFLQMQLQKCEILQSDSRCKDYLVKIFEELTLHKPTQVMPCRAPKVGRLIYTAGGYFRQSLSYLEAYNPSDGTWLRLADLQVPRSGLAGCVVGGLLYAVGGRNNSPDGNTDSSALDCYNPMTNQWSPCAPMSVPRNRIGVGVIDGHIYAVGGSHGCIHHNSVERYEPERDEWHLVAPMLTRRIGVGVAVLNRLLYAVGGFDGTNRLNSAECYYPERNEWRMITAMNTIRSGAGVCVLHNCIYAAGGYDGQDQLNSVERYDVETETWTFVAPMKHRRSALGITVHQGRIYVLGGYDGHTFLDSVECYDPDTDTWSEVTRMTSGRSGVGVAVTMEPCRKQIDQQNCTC

| SMILES | Kd [1] | CC50 at 24 h [2] | other results |
| --- | --- | --- | --- |
| COc1ccc(S(=O)(=O)N(CC(N)=O)c2ccc(N(CC(N)=O)S(=O)(=O)c3ccc([S+]([O-])CCCCCN=C=S)cc3)c3ccccc23)cc1 (centres undefined) | 1.83 µM | > 10 µM | – |
| COc1ccc(S(=O)(=O)N(CC(N)=O)c2ccc(N(CC(N)=O)S(=O)(=O)c3ccc(SCCOCCOCCOCCN=C=S)cc3)c3ccccc23)cc1 | > 10 µM | > 10 µM | – |
| COc1ccc(S(=O)(=O)N(CC(N)=O)c2ccc(N(CC(N)=O)S(=O)(=O)c3ccc(S(=O)(=O)CCOCCOCCN=C=S)cc3)c3ccccc23)cc1 | 1.22 µM | > 10 µM | – |
| COc1ccc(S(=O)(=O)N(CC(N)=O)c2ccc(N(CC(N)=O)S(=O)(=O)c3ccc(SCCOCCOCCN=C=S)cc3)c3ccccc23)cc1 | > 10 µM | > 10 µM | – |
| COc1ccc(S(=O)(=O)N(CC(N)=O)c2ccc(N(CC(N)=O)S(=O)(=O)c3ccc(SCCCCN=C=S)cc3)c3ccccc23)cc1 | > 10 µM | > 10 µM | – |
| COc1ccc(S(=O)(=O)N(CC(N)=O)c2ccc(N(CC(N)=O)S(=O)(=O)c3ccc([S+]([O-])CCOCCOCCOCCN=C=S)cc3)c3ccccc23)cc1 (centres undefined) | > 10 µM | > 10 µM | – |
| COc1ccc(S(=O)(=O)N(CC(N)=O)c2ccc(N(CC(N)=O)S(=O)(=O)c3ccc(S(=O)(=O)CCCCN=C=S)cc3)c3ccccc23)cc1 | > 10 µM | > 10 µM | – |
| COc1ccc(S(=O)(=O)N(CC(N)=O)c2ccc(N(CC(N)=O)S(=O)(=O)c3ccc(S(=O)(=O)CCN=C=S)cc3)c3ccccc23)cc1 | 0.658 µM | > 10 µM | Activity [3]: Active; Activity [4]: Active; Activity [5]: Active |
| COc1ccc(S(=O)(=O)N(CC(N)=O)c2ccc(N(CC(N)=O)S(=O)(=O)c3ccc(SCCCCCN=C=S)cc3)c3ccccc23)cc1 | > 10 µM | > 10 µM | – |
| COc1ccc(S(=O)(=O)N(CC(N)=O)c2ccc(N(CC(N)=O)S(=O)(=O)c3ccc([S+]([O-])CCOCCN=C=S)cc3)c3ccccc23)cc1 (centres undefined) | 3.08 µM | > 10 µM | – |
| C[S+]([O-])CCCCN=C=S (centres undefined) [SULFORAPHANE] | – | > 10 µM | Activity [3]: Active; inhibition [6]: Active; inhibition [7]: Active; Activity [4]: Active; inhibition [8]: Tde; Activity [5]: Active; inhibition [9]: Tde |
| COc1ccc(S(=O)(=O)N(CC(N)=O)c2ccc(N(CC(N)=O)S(=O)(=O)c3ccc(SCCOCCN=C=S)cc3)c3ccccc23)cc1 | 8.51 µM | > 10 µM | – |
| COc1ccc(S(=O)(=O)N(CC(N)=O)c2ccc(N(CC(N)=O)S(=O)(=O)c3ccc(N=C=S)cc3)c3ccccc23)cc1 | 0.106 µM | > 10 µM | Activity [3]: Active; Activity [4]: Active; Activity [5]: Active |
| COc1ccc(S(=O)(=O)N(CC(N)=O)c2ccc(N(CC(N)=O)S(=O)(=O)c3ccc(S(=O)(=O)CCOCCOCCOCCN=C=S)cc3)c3ccccc23)cc1 | > 10 µM | > 10 µM | – |
| COc1ccc(S(=O)(=O)N(CC(N)=O)c2ccc(N(CC(N)=O)S(=O)(=O)c3ccc(SCCCN=C=S)cc3)c3ccccc23)cc1 | > 10 µM | > 10 µM | – |
| COc1ccc(S(=O)(=O)N(CC(N)=O)c2ccc(N(CC(N)=O)S(=O)(=O)c3ccc([S+]([O-])CCCCN=C=S)cc3)c3ccccc23)cc1 (centres undefined) | 1.27 µM | > 10 µM | – |
| COc1ccc(S(=O)(=O)N(CC(N)=O)c2ccc(N(CC(N)=O)S(=O)(=O)c3ccc(S(=O)(=O)CCCN=C=S)cc3)c3ccccc23)cc1 | > 10 µM | > 10 µM | – |
| COc1ccc(S(=O)(=O)N(CC(N)=O)c2ccc(N(CC(N)=O)S(=O)(=O)c3ccc(S(=O)(=O)CCCCCN=C=S)cc3)c3ccccc23)cc1 | > 10 µM | > 10 µM | – |
| COc1ccc(S(=O)(=O)N(CC(N)=O)c2ccc(N(CC(N)=O)S(=O)(=O)c3ccc([S+]([O-])CCCN=C=S)cc3)c3ccccc23)cc1 (centres undefined) | 0.455 µM | > 10 µM | inhibition [10]: Dose-Dependent Effect; Activity [3]: Active; inhibition [6]: Active; Activity [11]: Active; Activity [12]: Active; inhibition [7]: Active; Activity [13]: Active; inhibition [14]: Dose-Dependent Effect; Activity [15]: Active; Activity [16]: Active; Activity [4]: Active; Activity [17]: Active; Activity [18]: Active; inhibition [8]: Tde; Activity [5]: Active; inhibition [9]: Tde |
| COc1ccc(S(=O)(=O)N(CC(N)=O)c2ccc(N(CC(N)=O)S(=O)(=O)c3ccc(SCCN=C=S)cc3)c3ccccc23)cc1 | 3.5 µM | > 10 µM | – |
| COc1ccc(S(=O)(=O)N(CC(N)=O)c2ccc(N(CC(N)=O)S(=O)(=O)c3ccc(S(=O)(=O)CCOCCN=C=S)cc3)c3ccccc23)cc1 | 2.3 µM | > 10 µM | – |
| COc1ccc(S(=O)(=O)N(CC(N)=O)c2ccc(N(CC(N)=O)S(=O)(=O)c3ccc([S+]([O-])CCN=C=S)cc3)c3ccccc23)cc1 (centres undefined) | 1.49 µM | > 10 µM | – |
| COc1ccc(S(=O)(=O)N(CC(N)=O)c2ccc(N(CC(N)=O)S(=O)(=O)c3ccc([S+]([O-])CCOCCOCCN=C=S)cc3)c3ccccc23)cc1 (centres undefined) | 1.09 µM | > 10 µM | – |
